Results as given in US7226761B2, “Manufacture of five-carbon sugars and sugar alcohols” (Danisco Sweeteners Oy, priority 1992, dated 2007).

How the values were obtained:
strains H1915 and H1916 = settings: approximately 0.5 mM H2O2, 1.5 h; both strains
Procedure: Strains H1915 and H1916 were cultivated to logarithmic growth phase. The cells were collected and suspended into synthetic complete medium lacking histidine and uracil to an average density of OD600 20. Glucose was added to a final concentration of 20 g/l and a sample was taken immediately. The cells were incubated in a 30° C. shaker (250 rpm) for 2.5 h and the first sample was taken. Then H2O2 was added to a concentration of approximately 0.5 mM and incubation continued for an additional 1.5 h, when the second sample was taken. The OD600 was measured, cells were removed by centrifugation, and the growth medium samples were analyzed by HPLC (Waters device, Aminex HPX-87H Ion Exclusion Column, see example 17).

[1] = tested on: TKL1 deficient strain H1764; experiment: Growth of TKL1 deficient strain on galactose plates containing D-xylulose; assay type: cell-based, Saccharomyces cerevisiae; settings: 2% galactose plates
Procedure: The genomic library of Z. rouxii was transformed into the TKL1 deficient strain of Saccharomyces cerevisiae (H1764, see example 12) and 10,000 independent clones were obtained. We have observed that the TKL1 deficient strain H1764 is unable to grow on 2% galactose plates containing 0.3% or higher concentrations of D-xylulose (probably due to toxic concentrations of 5-carbon sugar phosphates accumulating). The independent clones were plated with 0.5% D-xylulose (synthetic complete medium with 2% galactose, 0.5% xylulose and 3% xylose lacking leucine for selection of the library plasmid) and screened for complementation of growth on these plates.

SMILES | increase of total polyol and pentose production (strains H1915 and H1916) | D-xylulose concentration at which the strain is unable to grow [1]
OO [hydrogen peroxide] | 2 fold | –
O=C(CO)[C@@H](O)[C@H](O)CO [D-xylulose] | – | ≥ 0.3%
